{"source": "paper PMC9144278", "about": "“Inclusion of a Phytomedicinal Flavonoid in Biocompatible Surface-Modified Chylomicron Mimic Nanovesicles with Improved Oral Bioavailability and Virucidal Activity: Molecular Modeling and Pharmacodynamic Studies” (Pharmaceutics, 2022)", "key": {"[1]": {"tested_on": "myeloperoxidase (MPO) and NF-κB", "parameters": "species or system C57BL/6 mice", "conditions": "mouse, in vivo"}, "[2]": {"assay": "Ex vivo drug gut-permeation study, noneverted gut sac technique", "format": "in vitro ADME, male Wistar rats", "conditions": "rat intestine", "experimental": "A comparative ex vivo intestinal transport study between the drug suspension and the optimized formula was conducted using the noneverted gut sac technique. […] The small intestine from each animal was then excised and sliced into sections 5 cm in length. The sections were then rinsed using normal saline. Krebs–Ringer solution (~2 mL) was utilized to irrigate the intestinal segments, followed by sac formation by closing the lower portion of the segments using a thread. Each sac was filled with a sample of the pure MH suspension (estimated to comprise 5.0 mg of MH) or with the optimized F9 formulation (estimated to comprise 5.0 mg of MH). Finally, each sac was allocated in an organ path packed with 50 mL of Krebs–Ringer solution after the lower portion of each sac was tightly sealed with a thread. […] CO2 mixture. […] To maintain a constant total volume, the organ path was compensated by the addition of equal volumes of fresh Krebs–Ringer solution after each sample for analysis had been withdrawn. The amounts of MH that had permeated through the intestinal segment were determined via HPLC using a Hitachi LaChrom Elite instrument equipped with a Model Series L-2000 organizer box, L-2300 column oven, L-2130 pump with built in degasser, Rheodyne 7725i injector with a […], and a L-2455 photodiode array detector (PAD). […]"}, "Vero E6 cells": {"tested_on": "Vero E6 cells", "assay": "MTT cytotoxicity assay (TC50)", "format": "cell-based, African green monkey", "conditions": "24 h", "experimental": "Dulbecco’s Modified Eagle’s Medium (DMEM) was utilized for sample dilutions. The stock solutions of the investigated formulations were employed as solutions in 10% DMSO in double-distilled H2O. Cells were harvested in 96-well plates (100-µL/well at a density of 3 × 10^5 cells/mL) and were incubated for 24 h at 37 °C in 5% CO2. Afterwards, various amounts of the investigated compounds were added to the cells, and each experiment was performed in triplicate. After an extra 24 h, cell monolayers were dislodged from the supernatant and then rinsed 3 times with sterile phosphate buffer saline (PBS). MTT solution (20.0 µL of 5.00 mg/mL stock solution) was added into each well, and the cells were incubated for 4 h at 37 °C, followed by aspiration of the medium. […] The absorbances of the formazan solutions were assessed at λmax 540 vs. the 620 nm reference wavelength, using a multiwell plate reader. The cytotoxicity percentages related to the untreated cells were computed via GraphPad Prism software (version 7.01) using the following formula: %Cytotoxicity = (absorbance of cells without treatment − absorbance of cells with treatment) × 100 (absorbance of cells without treatment) […]"}, "[3]": {"tested_on": "MERS-related coronavirus isolate NRCE-HKU270", "assay": "microbe, parasite or virus in culture", "format": "cell-based, MERS-CoV"}, "[4]": {"assay": "Pharmacokinetic study after oral administration", "conditions": "rat"}, "MERS-CoV": {"tested_on": "MERS-CoV", "format": "in vivo, C57BL/6 mice", "conditions": "oral 10 mg/kg once daily"}, "[5]": {"tested_on": "IFN-γ, TNF-α, IL-6, IL-4, SOD in BALF", "parameters": "species or system C57BL/6 mice", "conditions": "mouse, in vivo, po, 10 mg/kg"}, "lung tissue": {"tested_on": "lung tissue", "parameters": "species or system C57BL/6 mice", "conditions": "mouse, in vivo"}, "[6]": {"assay": "Particle size, zeta potential and PDI by Zetasizer (dynamic laser scattering)", "format": "physicochemical", "experimental": "The MH-charged PCMs (0.10 mL) were admixed with distilled water (10.0 mL) in a glass culture tube and vortexed for 5 min. The particle sizes and their scattering surrounding the mean (including those of the pure-MH dispersion, shown in Supplementary Materials Figure S1) were determined at 25 °C using dynamic laser scattering with a 45 mm focus lens and a beam length of 2.4 mm. The same instrument was utilized for the ZP measurements of the electrophoretic mobility of the particles in the electric field."}, "[7]": {"conditions": "cited from earlier work"}, "[8]": {"conditions": "male, Wistar albino, in vivo, po, 20 mg/kg"}}, "note": "Where two headings read alike, the source gives them in different places."}
{"smiles": "O=c1c(O)c(-c2ccc(O)cc2O)oc2cc(O)cc(O)c12", "note": "[MH, 2′,3,4′,5,7-pentahydroxyflavone]", "values": [{"measurement": "effect on MPO and NF-κB protein expression in lung", "setting": "[1]", "value": "markedly suppressed the protein expression compared with the infected group"}, {"measurement": "Papp at 90 min", "setting": "[2]; male, Wistar, read-out: apparent permeability coefficient (APC) (converted)", "value": 2.53, "unit": "×10⁻⁶ cm/s"}, {"measurement": "flux (Jmax)", "setting": "[2]; after 90 min", "value": "0.37 ± 0.018", "unit": "μg/cm^2/min"}, {"measurement": "concentration for 50% cell cytotoxicity (TC50)", "setting": "Vero E6 cells", "value": 2.53, "unit": "µg/mL"}, {"measurement": "selectivity index (SI = CC50/EC50)", "setting": "[3]", "value": 19.4}, {"measurement": "EC50", "setting": "[3]; Middle East respiratory syndrome-related coronavirus, Vero C1008, read-out: EC50 antiviral activity", "value": 0.13, "unit": "µg/mL"}, {"measurement": "inhibition at 0.125 µg/mL", "setting": "[3]; Middle East respiratory syndrome-related coronavirus, Vero C1008, read-out: inhibition efficacy (viral plaques)", "value": 48, "unit": "%"}, {"measurement": "AUC(0-inf)", "setting": "[4]; [8]", "value": "77000 ± 22000", "unit": "ng·h/mL"}, {"measurement": "Tmax", "setting": "[4]; [8]", "value": 2, "unit": "h"}, {"measurement": "AUC(0-t)", "setting": "[4]; male, Wistar albino, in vivo, po, 20 mg/kg, AUC0–24, rat, 20 mg/kg MH, n = 6", "value": "56100 ± 16200", "unit": "ng·h/mL"}, {"measurement": "Cmax", "setting": "[4]; male, Wistar albino, in vivo, po, 20 mg/kg, Cmax, 20 mg/kg MH, n = 6", "value": "4820 ± 840", "unit": "ng/mL"}, {"measurement": "AUC0–24", "setting": "[4]; oral, 20 mg/kg MH, n = 6, listed as Morin Hydrate Dispersion", "value": "56000 ± 16000", "unit": "ng·h/mL"}, {"measurement": "% plaque prohibition in lung homogenate", "setting": "MERS-CoV; after 3 d postinfection", "value": 27.1, "unit": "%"}, {"measurement": "% plaque prohibition in lung homogenate", "setting": "MERS-CoV; after 6 d postinfection", "value": 44.8, "unit": "%"}, {"measurement": "IFN-γ level in BALF", "setting": "[5]", "value": "82.7 ± 7.51", "unit": "pg/mg protein"}, {"measurement": "IL-4 level in BALF", "setting": "[5]", "value": "23.5 ± 2.10", "unit": "pg/mg protein"}, {"measurement": "IL-6 level in BALF", "setting": "[5]", "value": "112.9 ± 14.6", "unit": "pg/mg protein"}, {"measurement": "SOD level in BALF", "setting": "[5]", "value": "2.2 ± 0.35", "unit": "U/mg protein"}, {"measurement": "TNF-α level in BALF", "setting": "[5]", "value": "57.4 ± 6.2", "unit": "pg/mg protein"}, {"measurement": "effect on lung pathological alterations", "setting": "lung tissue", "value": "marked suppression in all of those alterations"}, {"measurement": "particle sizes of MH dispersion", "setting": "[6]; MH dispersion in PBS used for oral dosing", "value": "672.3 ± 32.1"}, {"measurement": "PDI polydispersity index", "setting": "[6]; mean ± SD (n = 3)", "value": "0.576 ± 0.1"}]}
{"smiles": "NC(=O)N1c2ccccc2CC(=O)c2ccccc21", "note": "[oxycarbazepine]", "values": [{"measurement": "pKa", "setting": "[7]", "value": 10.7}]}
